Assays:
HT-29 = assay: Cytotoxic activity in human cancer cell lines (72 h growth inhibition); assay type: cell-based; conditions: Colorectal, 72 h incubation, mean ± SEM
From the text: (§1) Activity in pancreatic and colorectal cancer cells and glioblastoma cells was more variable (Table 1).

A549 = assay: as above; assay type: cell-based; conditions: Lung, 72 h incubation
From the text: as §1

ASPC1 = assay: as above; assay type: cell-based; conditions: Pancreatic, 72 h incubation, mean ± SEM
From the text: as §1

LOVO = assay: as above; assay type: cell-based; conditions: Colorectal, 72 h incubation, mean ± SEM
From the text: as §1

PC3 = assay: as above; assay type: cell-based; conditions: PC-3, Prostate, 72 h incubation, mean ± SEM
From the text: as §1

DU145 = assay: as above; assay type: cell-based; conditions: DU-145, Prostate, 72 h incubation, mean ± SEM
From the text: as §1

C4-2B = assay: as above; assay type: cell-based; conditions: Prostate, 72 h incubation, mean ± SEM
From the text: as §1

OVCAR-3 = assay: as above; assay type: cell-based; conditions: Ovarian, 72 h incubation, mean ± SEM
From the text: as §1

A172 = assay: as above; assay type: cell-based; conditions: A 172, Glioblastoma, 72 h incubation, mean ± SEM
From the text: as §1

JAM = assay: as above; assay type: cell-based; conditions: Ovarian, 72 h incubation, mean ± SEM
From the text: as §1

Panc-1 = assay: as above; assay type: cell-based; conditions: Pancreatic, 72 h incubation, mean ± SEM
From the text: as §1

[1] = system: hERG single mutant (hERG-SM); assay: Surface expression of hERG single mutant; assay type: cell-based, human; conditions: 0.1-10 μM
Method: (§2) However, at concentrations of 0.1-10 μM, the drug increased surface expression of the hERG single mutant (hERG-SM), identifying it as a potential blocker of hERG channel activity. […] Potential cardiovascular responses to intraperitoneal injection of TRX-E-002-1 were investigated in a GLP-compliant telemetry study in beagle dogs. Four male dogs received vehicle (20% SBECD) or TRX-E-002-1 (1, 10 or 30 mg/kg) on four separate occasions in a Latin Square design. Blood pressure, heart rate, ECG parameters and body temperatures were continuously recorded from 30 min before dosing until at least 24 h after each dose.

hERG current = target: T1, hERG current (Homo sapiens, UniProt Q12809); assay: Patch-clamp electrophysiological assay in hERG-transfected mammalian cells; assay type: cell-based; conditions: read-out: IC50 for inhibition of hERG current
T1 construct: expressed in transfected cells

CYP1A2 = assay: CYP induction in human hepatocytes; assay type: in vitro ADME
From the text: (§3) Potential induction of human drug-metabolizing cytochrome P450 enzymes by TRX-E-002-1 was also investigated in human hepatocytes in vitro (VPT3079/2015). No evidence of CYP1A2 induction was observed.

CYP3A4 = assay: CYP induction in human hepatocytes; assay type: in vitro ADME; conditions: one of three donors
From the text: as §3

CYP2B6 = assay: CYP induction in human hepatocytes; assay type: in vitro ADME; conditions: one of three donors
From the text: as §3

[2] = Dog 14-day pilot toxicity study with toxicokinetics, intraperitoneal; conditions: both, beagle, dog, plasma
Method: For the dog 14-day pilot study, male and female beagle dogs were dosed once daily with intraperitoneal injections of vehicle (1:2 dilutions of 20% SBECD in 0.9% saline) or Cantrixil (10, 30 or 100 mg/kg) for 14 days. The doses were administered via an implanted catheter.

[3] = system: OCSC2 ovarian cancer stem cells; assay: Western blots of caspase 2 and signalling molecules in OCSC2 cells; assay type: cell-based, human; conditions: Western blot
Method: The role of caspases and intracellular signalling pathways in the anticancer activity of TRX-E-002-1 was investigated in OCSC2 ovarian cancer stem cells. […] TRX-E-002-1 also modulated phosphorylation of intracellular signalling molecules, with decreased levels of pERK (phosphorylated extracellular signal-regulated kinase) and increased levels of phosphorylated c-Jun (p–c-Jun). Activated p–c-Jun levels increased progressively over the 24-h incubation period in response to both concentrations of TRX-E-002-1 tested. […] Increased p–c-Jun and decreased pERK levels were observed following incubation of OCSC2 cells after only 2-h’ exposure, indicating these changes are one of the earliest effects of TRX-E-002-1 treatment.

[4] = system: chemo-resistant CD44+/MyD88+ OCSC clones; assay: Cell death in ovarian cancer stem cell clones; assay type: cell-based, human; conditions: grown separately or in co-cultures
From the text: Tumour recurrence post-chemotherapy is caused by the regrowth of the surviving innately drug-resistant cancer stem cells that remain in tumour niches during and post-chemotherapy. The expansion of this chemo-resistant cancer cell population, coupled with upregulation of pro-survival pathways due to drug pressure, is thought to be responsible for the development of chemo-resistant recurrent disease. Further, the inherent heterogeneity of ovarian tumours consists of epithelial cells with varying potential for stemness, and a population of cancer cells with varying mesenchymal status and invasiveness potential. Therefore, to improve survival, a practical approach is the use of novel therapies that can induce cell death in these various subtypes of ovarian cancer cells. TRX-E-002-1 was assessed against ovarian cancer stem cell line OCSC2, characterised by their expression of stem cell markers including CD44 and […] [22]. A major characteristic of these cells is that they are drug resistant, able to form self-renewing spheroids in non-adherent culture, and recreate disseminated drug-resistant ovarian tumours that have a high degree of heterogeneity similar to the clinical profile observed in patients when inoculated into the peritoneal cavity of an immune-compromised mouse.

[5] = GLP telemetry cardiovascular study, intraperitoneal injection; assay type: in vivo, beagle dogs
Method: as §2

T1 sequence (Q12809 whole entry): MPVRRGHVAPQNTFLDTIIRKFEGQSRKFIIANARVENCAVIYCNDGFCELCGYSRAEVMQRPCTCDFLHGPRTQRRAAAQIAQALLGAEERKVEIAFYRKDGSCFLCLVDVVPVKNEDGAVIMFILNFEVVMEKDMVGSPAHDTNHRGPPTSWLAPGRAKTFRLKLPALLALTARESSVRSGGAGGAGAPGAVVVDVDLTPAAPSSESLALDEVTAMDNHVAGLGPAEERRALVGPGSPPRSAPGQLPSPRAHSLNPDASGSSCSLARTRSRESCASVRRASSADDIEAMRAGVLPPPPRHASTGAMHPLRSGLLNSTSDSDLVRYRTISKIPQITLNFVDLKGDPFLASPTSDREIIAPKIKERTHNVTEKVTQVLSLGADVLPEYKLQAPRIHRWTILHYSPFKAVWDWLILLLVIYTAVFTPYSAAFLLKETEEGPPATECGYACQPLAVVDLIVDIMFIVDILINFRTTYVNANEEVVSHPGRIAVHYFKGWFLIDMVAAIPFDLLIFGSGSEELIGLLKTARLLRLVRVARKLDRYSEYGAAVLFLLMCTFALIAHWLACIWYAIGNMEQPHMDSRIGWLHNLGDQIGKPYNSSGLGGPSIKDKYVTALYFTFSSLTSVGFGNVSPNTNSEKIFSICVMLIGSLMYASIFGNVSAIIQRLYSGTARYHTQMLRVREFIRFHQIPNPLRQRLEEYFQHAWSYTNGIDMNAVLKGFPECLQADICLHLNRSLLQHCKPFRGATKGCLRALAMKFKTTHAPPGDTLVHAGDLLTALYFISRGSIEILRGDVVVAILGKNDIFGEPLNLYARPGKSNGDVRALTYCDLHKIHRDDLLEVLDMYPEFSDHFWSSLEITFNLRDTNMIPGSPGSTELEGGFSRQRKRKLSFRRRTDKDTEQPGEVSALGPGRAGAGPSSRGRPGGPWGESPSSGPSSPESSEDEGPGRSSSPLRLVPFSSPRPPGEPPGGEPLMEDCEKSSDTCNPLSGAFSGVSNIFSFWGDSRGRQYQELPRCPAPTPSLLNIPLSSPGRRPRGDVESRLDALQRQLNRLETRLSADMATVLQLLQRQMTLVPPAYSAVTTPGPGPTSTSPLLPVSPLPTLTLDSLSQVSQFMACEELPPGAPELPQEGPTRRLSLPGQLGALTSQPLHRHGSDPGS

## COc1cc([C@@H]2COc3c(ccc(O)c3C)[C@@H]2c2ccc(O)cc2)cc(OC)c1O [TRX-E-002-1, (+) cis-4-(para-hydroxyphenyl)-7,4′-dihydroxy-3′,5′-dimethoxy-8-methylisoflavan]
HT-29
  IC50: 1760 ± 1380 nM
A549
  IC50: 58 nM
ASPC1
  IC50: 227 ± 55 nM
LOVO
  IC50: 45 ± 5 nM
LOVO; Homo sapiens, LoVo, 72 h
  IC50: 84 nM
PC3
  IC50: 96 ± 77 nM
DU145
  IC50: 41 ± 14 nM
C4-2B
  IC50: 14 ± 9 nM
OVCAR-3
  IC50: 23 ± 6 nM
A172
  IC50: 51 ± 2 nM
JAM
  IC50: 65 ± 2 nM
Panc-1
  IC50: 467 ± 378 nM
[1]
  surface expression of hERG-SM: increased
hERG current
  IC50: 17000 nM
CYP1A2
  CYP1A2 induction: No evidence
CYP3A4
  induction of CYP3A4: Equivocal evidence
CYP2B6
  induction of CYP2B6: Equivocal evidence
[2]; intraperitoneal
  half-life: 2 to 2.7 h
[2]; ip, 100 mg/kg
  Tmax: 0.5 to 2 h
[3]; both concentrations
  levels of inactive caspase 2: decreased
[3]; progressive over 24 h
  levels of phosphorylated c-Jun (p–c-Jun): increased
[3]; seen after 2 h exposure
  levels of pERK: decreased
[4]
  induction of cell death: able to induce cell death
[5]; 1, 10 or 30 mg/kg i.p., ECG telemetry
  effect on QTc interval: no effect
[5]; 10 and/or 30 mg/kg i.p., not considered adverse
  blood pressure and heart rate: slight, transient increases

Source: paper PMC5306062, “Pharmacology and toxicology of the novel investigational agent Cantrixil (TRX-E-002-1)” (Cancer Chemotherapy and Pharmacology, 2016)
